The record followed here is patent publication US9410142B2, “Dendrimer-based excipients for the attenuation of protein aggregation” (Massachusetts Institute of Technology, priority 2010, dated 2016).

Entries after “also recorded” stand apart in the source; their conditions may differ.

The target of series [1] is T1, α-chymotrypsinogen A (aCgn) (Bos taurus, UniProt P00766). Nature of the series: aCgn aggregation (monomer loss) at 52.5° C. by size exclusion HPLC. Conditions: for aCgn t95/t95, 0 (Shelf-Life Extension Factor): isotonic concentrations, 20 mM sodium citrate pH 5, 52.5° C., time for 5% loss of protein vs no additive; for aCgn aggregation suppression compared with other salt forms / generations (FIG. 5, 6, 8): 10 mg/mL aCgn, pH 5, 52.5° C.; for rate of aCgn monomer loss compared to the reference solution: additive 0.05 M. In kind it is physicochemical, Bovine. Here is the method:
The aggregation of aCgn was accelerated by incubating samples at an elevated temperature. […] In addition to all aggregation experiments being conducted at that temperature, all samples contained 10 mg/mL aCgn, held at pH 5.0 using a 20 mM sodium citrate buffer. 50 μL aliquots of each protein-cosolute mixture were placed in 0.2 mL polymerase chain reaction (PCR) tubes and then incubated in a Bio-Rad Mycycler thermal cycler with a timer initiated when the thermal cycler reached the desired temperature. Each series contained 12 samples and up to 8 different mixtures were tested at the same time during any given experiment. Samples were removed periodically and immediately placed in an ice bath to quench the aggregation reaction. The length of each experiment was planned so that the extent of reaction was such that at least 20% of the protein aggregated, making changes in the rate of aggregation pronounced. After at least five minutes in the ice bath, the samples were briefly spun in a minicentrifuge to remove precipitated aggregates and then transferred to autosampler vials.
All aCgn samples were first treated with phenylmethylsulfonyl fluoride to inhibit residual amounts of active enzyme and, after dialysis, solutions were frozen, rather than lyophilized, in 0.3 mL aliquots and used within 6 months. […] Solutions for the aggregation study were prepared by first preparing a solution of the cosolute of interest in a 20 mM sodium citrate pH 5 buffer at a concentration double that of interest (adjusting the pH to 5 if needed with the appropriate acid or an 8 M sodium hydroxide solution), then mixing 0.3 mL of this solution with 0.3 mL of a thawed aCgn solution. This solution was then divided into twelve aliquots, each 50 μL in volume, and incubated at an elevated temperature, as described below.
15 μL, of each aCgn sample were injected into an Agilent 1200 series HPLC, equipped with a Zorbax GF-250 (4.6×250 mm, 4 micron) size exclusion column and a UV-Vis detector, during a sequence. The HPLC mobile phase contained 25 mM citric acid monohydrate, 25 mM sodium acetate, and 200 mM sodium chloride with the pH adjusted to 4.0 using sodium hydroxide. The flow rate was set at 1 mL/min and samples were monitored at 280 nm.
Peak area at each time point was compared to the peak area for an unstressed sample to create a monomer loss profile normalized with respect to the initial concentration. Each profile was compared to a profile for a sample containing no cosolute to determine the change in aggregation rate upon addition of the cosolute. For a control, each aggregation experimental setup had one protein solution that contained no cosolute to verify that the baseline aggregation rate remained constant amongst all experiments.
The most notable consequence of perturbing a protein's environment is the enhancement or inhibition of protein aggregation. Deyoung L R et al. (1993) Accounts Chem Res 26:614-620; Fink A L (1998) Fold Des 3:R9-R23. The guanidinium-modified dendrimers were added to model protein solutions and incubated at an elevated temperature to determine how they influence the rate of this degradation pathway. […] At low dendrimer concentrations (0.05 M), the rate of monomer loss in the presence of the surface-modified dendrimer is slower than when compared to the reference solution. However, this aggregation rate reduction is insignificant when compared to the rate reduction induced by a high concentration of other commonly used additives such as arginine hydrochloride (ArgHCl), which is also depicted in the figure. Furthermore, as the concentration of the surface-modified dendrimer is increased, the aggregation rate reduction decreases until ultimately, the rate of aggregation is increased. At a concentration of 0.2 M, the surface-modified dendrimer induced rapid aggregation, causing a 50% loss in about 10 minutes as opposed to 30 minutes for the solution containing no cosolute. […]

The target of a further series is Concanavalin A (Con A) (Canavalia ensiformis, UniProt P02866). Nature of the series: Con A aggregation / shelf-life at pH 6.5 and 37° C. The settings on record: for Con A t95/t95, 0 (Shelf-Life Extension Factor): isotonic concentrations, 40 mM sodium phosphate pH 6.5, 37° C., time for 5% loss of protein vs no additive. The series is classed as physicochemical. The method, then: This Shelf-Life Extension Factor was determined by comparing the length of time, t95, for a 5% loss of protein when in the presence of the compounds to the original length of time, t95,0 for a 5% loss. For comparison purposes, isotonic concentrations (as determined by VPO) of the compounds were used and Shelf-Life Extension Factor values for commonly used excipients at isotonic concentrations are shown as well. Shelf-life values of aCgn were determined at 52.5° C. and at 37° C. for Con A.

Series [2] deals with T1, α-chymotrypsinogen A (aCgn). Nature of the series: DSC denaturation midpoint temperature (Tm) of aCgn. In kind it is physicochemical, Bovine. The method, then:
The thermodynamic stability of aCgn in the presence of the arginine salts was determined by DSC (Microcal VP-Differential Scanning calorimeter located in the Biophysical Instrumentation Facility (BIF) at MIT). Each reading began with a minimum of three buffer-buffer up and down scans (in this case, the buffer also contains the cosolute of interest) to establish a reproducible thermal history followed by a single protein-buffer up scan. aCgn was analyzed at a concentration of 1 mg/mL in a 20 mM sodium citrate pH 5 buffer containing the cosolute of interest and a scan rate of 90° C./hour. The data was analyzed in the MicroCal Origin® plotting software. In the analysis, the last buffer-buffer reference scan was first subtracted from the data and then the data was normalized with respect to the protein concentration, cell volume, and scan rate. The baseline (which was progressed through the peak) was then subtracted from the plot and the denaturation midpoint temperature, Tm, was taken as the temperature at the peak maximum of the unfolding event. For each arginine salt, three concentrations (including zero concentration) were tested and Tm values with respect to cosolute concentration were fitted to a linear trend.
The thermostability of aCgn at 1 mg/mL in the presence of the modified dendrimers was assessed by determining the denaturation midpoint temperature (Tm) from DSC scans, which is a qualitative indicator of how the conformational stability of the protein is perturbed. Ghosh K et al. (2009) Proc Natl Acad Sci USA 106:10649-10654.

Series [3] shares this target. Nature of the series: Preferential interaction with aCgn by vapor pressure osmometry (VPO). In kind it is physicochemical, Bovine. The settings on record: for Γexp preferential interaction coefficient of aCgn: 0.17-[…] dendrimer salt, VPO. Here is the method: Osmolality measurements were carried out according to the previously described procedure. For improved accuracy, all samples were prepared gravimetrically using a Mettler Toledo balance with a precision of 0.1 mg. Partial molar volume values of the
Stock solutions of both BSA and lysozyme and stock solutions of the cosolutes were each prepared in a 40 mM sodium phosphate buffer, pH 6.0 (aCgn measurements were conducted in 20 mM sodium citrate buffer, pH 3.5 or pH 5.0). Stock solutions of the cosolutes were used so that a series of samples could be easily produced with varying solute concentrations by dilution with water and buffer. The protein stock solutions were further purified by placing the solutions under dialysis for 48 hours at room temperature against two changes of buffer (1 L each). […] To determine the concentration, samples of each stock solution were diluted gravimetrically with water to a final optical density of about 1.0 and the concentration determined spectrophotometrically with a PerkinElmer Lambda 35 UV/Vis spectrometer. It should be noted that the protein stock solutions were stored at 4° C. and used within one week of their preparation.
[formula] A Wescor Vapro® vapor pressure osmometer (model 5520) was used for all osmometry measurements. The instrument was calibrated using 0.1, 0.29, and 1 mol/kg osmolality standards provided by Wescor. Due to slight drifts in the calibration points, the instrument was recalibrated after every four measurements and the thermocouple was cleaned daily using concentrated ammonium hydroxide followed by a rinse with HPLC grade water. […] The data sets for each cosolute included at least 16 individually made solutions (both for the sets with and without the protein). Each sample contained approximately 80 μL of solution (40 μL of diluted cosolute stock solution and 40 μL of the protein stock solution). A minimum of three measurements on each solution were made. If the standard deviation for a particular solution was greater than 2 mmol/kg, more measurements were taken or another sample was prepared. For a given solute, data representing the dependence of osmolality on solute molality were fitted by a quadratic equation, with all fitting parameters floated. Data were weighted by the standard deviation of the individual osmolality measurements for the same solution using the nonlinear fitting program Igor Pro.
To gain further insight into how the modified dendrimer salts inhibit protein-protein interactions, preferential interaction coefficient (Γ23) values at various concentrations were determined, both experimentally via vapor pressure osmometry (VPO) measurements and computationally via MD simulations. The experimental results for the interaction between modified generation 0 PAMAM dendrimers and aCgn are expressed in Table 2, which summarizes the polynomial fit and uncertainty of the experimental data. Theoretical preferential interaction coefficient values were computed from the MD simulation using the procedure outlined in our previous work. Baynes B M and Trout B L (2003) J Phys Chem B 107:14058-14067; Shukla D et al. (2009) J Phys Chem B 113:12546-12554.

Series [4] is described as follows: Partial molar volume from density measurements of dendrimer only solutions. In kind it is physicochemical.

In the case of `Cl.N=C(N)NCCC[C@H](N)C(=O)O` [ArgHCl, arginine hydrochloride, reference compound], the “aCgn t95/t95, 0 (Shelf-Life Extension Factor)” value (“aCgn t95/t95” for short) in series [1] amounted to 3.3. Besides, the “Con A t95/t95, 0 (Shelf-Life Extension Factor)” value (“Con A t95/t95” for short) on Concanavalin A (Con A) was determined as 0.4.

Consider `N=C(N)NCCNC(=O)CCN(CCNC(=O)CCN(CCC(=O)NCCN(CCC(=O)NCCNC(=N)N)CCC(=O)NCCNC(=N)N)CCN(CCC(=O)NCCN(CCC(=O)NCCNC(=N)N)CCC(=O)NCCNC(=N)N)CCC(=O)NCCN(CCC(=O)NCCNC(=N)N)CCC(=O)NCCNC(=N)N)CCC(=O)NCCNC(=N)N.O=P(O)(O)O.O=P(O)(O)O.O=P(O)(O)O.O=P(O)(O)O.O=P(O)(O)O.O=P(O)(O)O.O=P(O)(O)O.O=P(O)(O)O.O=P(O)(O)O.O=P(O)(O)O.O=P(O)(O)O.O=P(O)(O)O.O=P(O)(O)O.O=P(O)(O)O` [Dend. 1 Gdm(H2PO4)], for which, in series [1], the “aCgn aggregation suppression compared with other salt forms / generations (FIG. 5, 6, 8)” value is given as “lower for all concentrations” and the “aCgn t95/t95” value turned out to be 16.3.

As to `N=C(N)NCCNC(=O)CCN(CCNC(=O)CCN(CCC(=O)NCCN(CCC(=O)NCCNC(=N)N)CCC(=O)NCCNC(=N)N)CCN(CCC(=O)NCCN(CCC(=O)NCCNC(=N)N)CCC(=O)NCCNC(=N)N)CCC(=O)NCCN(CCC(=O)NCCNC(=N)N)CCC(=O)NCCNC(=N)N)CCC(=O)NCCNC(=N)N.O=S(=O)(O)O.O=S(=O)(O)O.O=S(=O)(O)O.O=S(=O)(O)O.O=S(=O)(O)O.O=S(=O)(O)O.O=S(=O)(O)O` [Dend. 1 Gdm(SO4)1/2], the results for the “Con A t95/t95” value on Concanavalin A (Con A), on Concanavalin A (Con A) (listed as generation 1 dendrimer with a guanidinium sulfate surface) and on Concanavalin A (Con A) (listed as sulfate form of the generation 1 modified dendrimer) were 16.7, “greater than 15” and 16.7, respectively. The “Con A shelf-life, times longer than with glycerol or sucrose” value on Concanavalin A (Con A) (pH 6.5, 37° C.) is recorded as “over 10 times”.

For `Cl.Cl.Cl.Cl.Cl.Cl.N=C(N)NCCNC(=O)CCN(CCC(=O)NCCNC(=N)N)CCN(CCC(=O)NCCNC(=N)N)CCC(=O)NCCNC(=N)N` [GdmCl, Generation 0 Polyamidoamine (PAMAM) dendrimer with a surface modified to guanidinium], the “rate of aCgn monomer loss compared to the reference solution” value in series [1] is on record as “slower”. Further, the “time for 50% loss of aCgn monomer” value in series [1] (additive 0.2 M, no cosolute 30 minutes) was “about 10 minutes”. The “rate of lowering the melting temperature of aCgn relative to ordinary GdmCl” value in series [2] is “double”. The “dTm/d[3] aCgn denaturation midpoint temperature increment” value in series [2] (1 mg/mL aCgn, 20 mM sodium citrate pH 5, maximum dendrimer 0.2 mol/L) was −13.9 K * L/mol. The “rate of decrease of Tm of aCgn” value in series [2] (concentrations less than 0.2 mol/L) is 13.9 ° C.*M^−1. The “Γ23/[3] preferential interaction with aCgn” value in series [3] (50 mg/mL aCgn, 20 mM sodium citrate pH 5, maximum dendrimer 0.2 mol/L) was −8.1 ± 3.6 mol/mol. Further, the “Γexp preferential interaction coefficient of aCgn” value in series [3] was −1.5; in series [3] (listed as chloride salt), −1.5±0.7. For the same compound, the “V0 partial molar volume at infinite dilution” value in series [4] turned out to be 0.5217 L/mol.

With `OCC(O)CO` [Glycerol, reference compound], on Concanavalin A (Con A), the “Con A t95/t95” value amounted to 1.3.

Regarding `O=S(=O)([O-])[O-].[Na+].[Na+]` [Na2SO4, sodium sulfate, reference compound], the “aCgn t95/t95” value in series [1] is 3.1.

For the compound `OC[C@H]1O[C@@](CO)(O[C@H]2O[C@H](CO)[C@@H](O)[C@H](O)[C@H]2O)[C@@H](O)[C@@H]1O` [Sucrose, reference compound], in series [1], the “aCgn t95/t95” value turned out to be 1.9.

Turning to `CC(=O)O` [acetate], the “aCgn aggregation suppression compared with other salt forms / generations (FIG. 5, 6, 8)” value in series [1] was “moderately improves the performance; also recorded: only improved slightly”.

For “Generation 1 PAMAM Dendrimer, Ethylene Diamine Core, with Guanidinium Chloride Surface Groups [G1-Gdn]”, the “rate of aCgn monomer loss compared to the reference solution” value in series [1] is recorded as “large increase in the rate of aggregation”.
